Data from patent US20210292296A1, “1,2,4-Trioxane compounds and compositions comprising the same for use in the treatment of COVID-19” (priority 2020, published 2021).

What was measured:
SARS-CoV-2 [1] = test: SARS-CoV-2 induced cytopathic effect (CPE) in Vero E6 cells, MTS method; format: cell-based; conditions: 72 h
SARS-CoV-2 [2] = test: Pretreatment screening, SARS-CoV-2 plaque numbers on Vero E6 cells; format: cell-based
[3] = Aqueous stability of artemisinin in presence of additives (1H NMR); format: physicochemical; conditions: 93° C. for 90 minutes
Procedure: Two solvents were tested, tap water and premade black coffee, and glucose (1 equivalent) was tested as a reductant. All mixtures were heated to 93° C. for 90 minutes in 10 mL glass vials open to the atmosphere. Halfway through heating, 1-2 mL of tap water was added to compensate for evaporation. Following heating, 2 mL ethyl acetate was added, and the biphasic solution was dried using a rotary evaporator with water bath at 40° C. The flask was further dried for three hours under high vacuum. All samples were dissolved in CDCl3 containing 0.5 equivalents of an internal standard (1,2,4,5-tetramethylbenzene) and ^1H NMR performed.

## C[C@H]1[C@H](OC(=O)CCC(=O)O)O[C@@H]2O[C@@]3(C)CC[C@H]4[C@H](C)CC[C@@H]1[C@@]24OO3 [artesunate]
SARS-CoV-2 [1]
  EC50 (inhibition of virus-induced CPE): sufficiently low

## C[C@@H]1CC[C@H]2[C@@H](C)C(=O)O[C@@H]3O[C@@]4(C)CC[C@@H]1[C@]32OO4 [artemisinin]
SARS-CoV-2 [2]; pretreatment 15 min, dilution 100
  # of Plaques: 78
SARS-CoV-2 [2]; pretreatment 15 min, dilution 1,000
  # of Plaques: 104
SARS-CoV-2 [2]; pretreatment 15 min, dilution 10,000
  # of Plaques: 109
SARS-CoV-2 [2]; pretreatment 15 min, sample 0.22 μg/mL
  plaques observed divided by average of negative control multiplied by 100: 95.63
SARS-CoV-2 [2]; pretreatment 15 min, sample 2.2 μg/mL
  plaques observed divided by average of negative control multiplied by 100: 84.06
SARS-CoV-2 [2]; pretreatment 15 min, sample 22 μg/mL
  plaques observed divided by average of negative control multiplied by 100: 80.21
SARS-CoV-2 [2]; pretreatment 15 min, sample 220 μg/mL
  plaques observed divided by average of negative control multiplied by 100: 60.15
SARS-CoV-2 [2]; pretreatment 30 min, dilution 100
  # of Plaques: 88
SARS-CoV-2 [2]; pretreatment 30 min, dilution 1,000
  # of Plaques: 100
SARS-CoV-2 [2]; pretreatment 30 min, dilution 10,000
  # of Plaques: 102
SARS-CoV-2 [2]; pretreatment 30 min, sample 0.22 μg/mL
  plaques observed divided by average of negative control multiplied by 100: 104.88
SARS-CoV-2 [2]; pretreatment 30 min, sample 2.2 μg/mL
  plaques observed divided by average of negative control multiplied by 100: 78.66
SARS-CoV-2 [2]; pretreatment 30 min, sample 22 μg/mL
  plaques observed divided by average of negative control multiplied by 100: 78.66
SARS-CoV-2 [2]; pretreatment 30 min, sample 220 μg/mL
  plaques observed divided by average of negative control multiplied by 100: 67.87
SARS-CoV-2 [2]; pretreatment 60 min, dilution 100
  # of Plaques: 96
SARS-CoV-2 [2]; pretreatment 60 min, dilution 1,000
  # of Plaques: 120
SARS-CoV-2 [2]; pretreatment 60 min, dilution 10,000
  # of Plaques: 100
SARS-CoV-2 [2]; pretreatment 60 min, sample 0.22 μg/mL
  plaques observed divided by average of negative control multiplied by 100: 95.63
SARS-CoV-2 [2]; pretreatment 60 min, sample 2.2 μg/mL
  plaques observed divided by average of negative control multiplied by 100: 77.12
SARS-CoV-2 [2]; pretreatment 60 min, sample 22 μg/mL
  plaques observed divided by average of negative control multiplied by 100: 92.54
SARS-CoV-2 [2]; pretreatment 60 min, sample 220 μg/mL
  plaques observed divided by average of negative control multiplied by 100: 74.04
SARS-CoV-2 [2]; pretreatment 120 min, dilution 100
  # of Plaques: 106
SARS-CoV-2 [2]; pretreatment 120 min, sample 0.22 μg/mL
  plaques observed divided by average of negative control multiplied by 100: 103.34
SARS-CoV-2 [2]; pretreatment 120 min, sample 2.2 μg/mL
  plaques observed divided by average of negative control multiplied by 100: 95.63
SARS-CoV-2 [2]; pretreatment 120 min, sample 22 μg/mL
  plaques observed divided by average of negative control multiplied by 100: 103.34
SARS-CoV-2 [2]; pretreatment 120 min, sample 220 μg/mL
  plaques observed divided by average of negative control multiplied by 100: 81.75
[3]; premade black coffee + glucose (1 equivalent)
  loss of artemisinin: 19%
[3]; premade black coffee
  degradation of artemisinin: 17%
[3]; tap water + glucose (1 equivalent)
  loss of artemisinin: 32%
